Measurements: US12482280B2, “Biological image transformation using machine-learning models” (Insitro, Inc., priority 2020, dated 2025)

Tested on: tissues with NASH
Test: Evaluation of drug treatment in NASH disease model using GAN-generated phase/fluorescence images
Type: cell-based
Conditions: NASH 2X + ACC inhibitor
Description: FIG. 16A illustrates synthetic images generated by an exemplary GAN model to study the NASH disease, in accordance with some embodiments. In the depicted example, Hepg2 cells with NASH genetic background are illuminated using an optimal illumination pattern identified using techniques described herein, and a bright-field image is captured. The bright-field image is inputted into a GAN model, which outputs a generated phase image and a generated fluorescence/bodipy image in FIG. 16A. The GAN model used in FIG. 16A can be configured to include a trained classifier as described with reference to FIGS. 14A-B and 15. The classifier has two conditions: a healthy condition (e.g., no perturbations) and a diseased condition (e.g., inflammation cocktail plus fatty acid). […]
The synthetic images generated by the GAN model can also be used to evaluate the efficacy of a treatment. […] The images can be phase images or fluorescence images generated using the techniques described herein (e.g., from bright-field images). Each phase or fluorescence image can be generated based on multiple bright-field images and thus comprises richer information such as phase shift information. Accordingly, the generated phase or fluorescence images can allow for higher precision in downstream analyses, as described below. […]

COc1ccccc1[C@H](Cn1c(=O)n(C(C)(C)C(=O)O)c(=O)c2c(C)c(-c3ncco3)sc21)OC1CCOCC1 [ACC inhibitor, firsocostate]
probability of having the disease outputted by a classifier trained on generated images (distribution, FIG. 16C) (50 uM, treated tissues vs untreated diseased tissues, generated images): lower probabilities of having the disease than generated images of diseased tissues
image clusters in an embedding space (UMAP, FIG. 16D) (generated images of treated vs diseased vs healthy tissues): moves away from the cluster of generated diseased images and toward the cluster of generated healthy images
